From patent US11459397B2, “Self-crosslinking antibodies” (Meditope Biosciences, Inc., priority 2016, dated 2022)

Legend:
[1] = molecular target: cetuximab Fab fragment; assay: meditope binding to cetuximab Fab; details: meditope-binding site within the central cavity of the cetuximab Fab fragment; read-out: binding constant
Text: In some examples, the meditope-binding site is a structural feature of the monoclonal antibody cetuximab. Thus, in some cases, the meditope-binding site contains residues corresponding to those within the meditope binding site of cetuximab.

[2] = modulation of self-crosslinking by free meditope, silver-stained native gel; format: physicochemical; details: 1 μM free meditope, 100 nM SnAP-body variants 1, 2, 3
[3] = test system: HER2 expressing SK-OV-3-Luc ovarian xenograft; assay: efficacy in SK-OV-3-Luc ovarian xenograft subcutaneous model; format: in vivo, mice; details: 20 mg/kg ip BIW, day 52 pi
Procedure: This study was performed to evaluate the efficacy of ADC constructs against HER2 expressing SK-OV-3-Luc ovarian xenograft subcutaneous model using both bioluminescent imaging and traditional tumor caliper measurement. Sixty-five female athymic nudes, 4 weeks old of age were obtained from Charles River. SK-OV-3-Luc cells were expanded using standard tissue culture technique. On the day of implantation, 2.5×10^6 cells in incomplete media with 30% matrigel were implanted to the right lower flank of each mouse. Animals were stratified into 7 groups of 8 mice for treatment based on the total flux (Perkin Elmer IVIS Lumina XRMS II) at day 10 pi. Animals were weighed twice weekly in conjunction with tumor measurements. Bioluminescent Imaging were performed once a week. Tumor mass were calculated using the following formula: Mass (mg)=Tumor volume (mm^3)=d^2×D/2, where d and D are the shortest and longest diameter in mm, respectively.

[4] = test system: CLL; details: Phase I, cited from earlier work
[5] = 46 heavily pretreated CLL patients, single agent

cetuximab Fab fragment, sequence (as listed by the source, other chains not shown): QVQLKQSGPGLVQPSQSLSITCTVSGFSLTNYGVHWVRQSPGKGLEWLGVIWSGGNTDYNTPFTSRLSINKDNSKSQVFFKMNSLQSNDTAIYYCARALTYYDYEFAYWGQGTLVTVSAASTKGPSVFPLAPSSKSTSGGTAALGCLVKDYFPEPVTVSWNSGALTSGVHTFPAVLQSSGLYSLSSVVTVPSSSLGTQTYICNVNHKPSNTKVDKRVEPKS

Compound: C-QFDLSTRRLK-C [cQFD meditope]
- Kd [1]: ~700 nM
- effect of free meditope on antibody self-crosslinking [2]: can interfere with the self-crosslinking ability of self-crosslinking antibodies

Compound: CC(=O)O[C@H]1C(=O)[C@@]2(C)[C@H]([C@H](OC(=O)c3ccccc3)[C@]3(O)C[C@H](OC(=O)[C@H](O)[C@@H](NC(=O)c4ccccc4)c4ccccc4)C(C)=C1C3(C)C)[C@]1(OC(C)=O)CO[C@@H]1C[C@@H]2O [Paclitaxel]
- TGI [3]: 2.80%

Compound: lumiliximab: primatized anti-CD23 mAb that contains cynomolgus macaque variable regions and human constant regions (IgG1-κ)
- objective Complete Responses (CRs) or Partial Responses (PRs) [4, 5]: no objective Complete Responses (CRs) or Partial Responses (PRs) were observed
- patients with decreased peripheral blood lymphocyte counts [4, 5]: 91 % of patients
- patients with reduced enlarged lymph node size [4, 5]: 52 % of patients
- MTD (maximum tolerated dose) ([4]; CLL patients): not reached
- adverse events (AEs) ([4]; CLL patients): majority of adverse events (AEs) are limited to grade 1/2
- immunosuppression ([4]; CLL patients): not immunosuppressive
